The values that follow are results of earlier work, collected in patent US20030073069A1, “Drug rescue by redesign of ADMET/PK properties” (priority 2001, published 2003).

Like-named read-outs stand apart in the source and are kept apart here.

Data set [1] concerns P450.
Data set [2] deals with P450. The note with it: induction of a P450.
The conditions of data set [3]: development for memory enhancement abandoned.
The conditions of data set [4]: FIG. 8.
The target of data set [5] is CYP 3A4 (Homo sapiens, UniProt P08684). The note with it: indicates a reactive intermediate formed by CYP 3A4 metabolism.
Chain of CYP 3A4 (P08684 whole entry): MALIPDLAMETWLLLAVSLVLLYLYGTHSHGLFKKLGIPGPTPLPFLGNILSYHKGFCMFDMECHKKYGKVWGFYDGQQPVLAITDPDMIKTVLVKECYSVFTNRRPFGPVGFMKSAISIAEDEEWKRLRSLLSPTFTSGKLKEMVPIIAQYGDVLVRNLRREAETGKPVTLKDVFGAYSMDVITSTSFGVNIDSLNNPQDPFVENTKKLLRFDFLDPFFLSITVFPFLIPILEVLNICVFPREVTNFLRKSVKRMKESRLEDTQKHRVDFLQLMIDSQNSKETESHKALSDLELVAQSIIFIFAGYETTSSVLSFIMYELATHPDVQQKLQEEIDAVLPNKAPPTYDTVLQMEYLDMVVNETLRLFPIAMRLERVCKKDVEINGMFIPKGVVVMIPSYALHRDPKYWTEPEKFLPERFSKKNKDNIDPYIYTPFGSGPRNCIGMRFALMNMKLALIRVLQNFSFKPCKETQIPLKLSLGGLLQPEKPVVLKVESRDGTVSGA

Regarding `CCOC(=O)C1=C(C)NC(C)=C(C(=O)OC)C1c1cccc(Cl)c1Cl` (stereo not shown) [felodipine], the “No. of currently known drug interactions that involve the compound, Inhibition” value in data set [1] (inhibition of a P450) is 1. Further, the “No. of currently known drug interactions that involve the compound, Induction” value in data set [2] is reported as 4.

On to `C[C@H]1C[C@@H]2[C@H]([C@@H](O)C[C@@]3(C)[C@H]2CC[C@]3(O)C(=O)CO)[C@@]2(C)C=CC(=O)C=C12` [methylprednisolone], for which the “No. of currently known drug interactions that involve the compound, Inhibition” value in data set [1] (inhibition of a P450) is reported as 1. Also, the “No. of currently known drug interactions that involve the compound, Induction” value in data set [2] is recorded as 14. As to `O=C1NC(=O)C(c2ccccc2)(c2ccccc2)N1` [phenytoin], in data set [1] (inhibition of a P450), the “No. of currently known drug interactions that involve the compound, Inhibition” value is 4. Further, the “No. of currently known drug interactions that involve the compound, Induction” value in data set [2] is given as 1. With `C=CC[C@@H]1/C=C(\C)C[C@H](C)C[C@H](OC)[C@H]2O[C@@](O)(C(=O)C(=O)N3CCCC[C@H]3C(=O)O[C@H](/C(C)=C/[C@@H]3CC[C@@H](O)[C@H](OC)C3)[C@H](C)[C@@H](O)CC1=O)[C@H](C)C[C@@H]2OC` [tacrolimus], the “No. of currently known drug interactions that involve the compound, Inhibition” value in data set [1] (inhibition of a P450) is 4. For the same molecule, the “No. of currently known drug interactions that involve the compound, Induction” value in data set [2] is given as 3.

With `CC(=O)CC(c1ccccc1)c1c(O)c2ccccc2oc1=O` (stereo not shown) [warfarin], in data set [1] (inhibition of a P450), the “No. of currently known drug interactions that involve the compound, Inhibition” value is 12. For the same molecule, in data set [2], the “No. of currently known drug interactions that involve the compound, Induction” value was 2.

`CC(CN(C)C)CN1c2ccccc2CCc2ccccc21` (stereo not shown) [trimipramine]: in data set [1] (inhibition of a P450), the “No. of currently known drug interactions that involve the compound, Inhibition” value is on record as 4. Also, the “No. of currently known drug interactions that involve the compound, Induction” value in data set [2] was 9. Regarding `O=C1CN=C(c2ccccc2)c2cc(Cl)ccc2N1CC(F)(F)F` [halazepam], the “No. of currently known drug interactions that involve the compound, Inhibition” value in data set [1] is 7. Further, the “No. of currently known drug interactions that involve the compound, Induction” value in data set [2] was 3. As to `CNC1=Nc2ccc(Cl)cc2C(c2ccccc2)=[N+]([O-])C1` [chlordiazepoxide], the “No. of currently known drug interactions that involve the compound, Inhibition” value in data set [1] is recorded as 7. The “No. of currently known drug interactions that involve the compound, Induction” value in data set [2] was 3. In the case of `C[C@]12C=CC(=O)C=C1CC[C@@H]1[C@@H]2[C@@H](O)C[C@@]2(C)[C@H]1CC[C@]2(O)C(=O)CO` [prednisolone], in data set [1] (inhibition of a P450), the “No. of currently known drug interactions that involve the compound, Inhibition” value was 1. Further, in data set [2], the “No. of currently known drug interactions that involve the compound, Induction” value was 10. For `CCCCCNC(=N)N/N=C/c1c[nH]c2ccc(OC)cc12` [tegaserod], in data set [3], the “ability to breach the Blood-Brain-Barrier, as found” value is reported as “not to breach the Blood-Brain-Barrier”.

With `O=C(O)C1N=C(c2ccccc2)c2cc(Cl)ccc2NC1=O` (stereo not shown) [clorazepate], in data set [1], the “No. of currently known drug interactions that involve the compound, Inhibition” value is given as 7. Moreover, in data set [2], the “No. of currently known drug interactions that involve the compound, Induction” value was 3.

In the case of `C=C[C@H]1C[N@@]2CC[C@H]1C[C@@H]2[C@@H](O)c1ccnc2ccc(OC)cc12` [quinidine], the “No. of currently known drug interactions that involve the compound, Inhibition” value in data set [1] (inhibition of a P450) is listed as 4. For the same molecule, the “No. of currently known drug interactions that involve the compound, Induction” value in data set [2] is listed as 13. As to `Clc1ccc2c(c1)C(c1ccccc1)=NCc1nncn1-2` [estazolam], the “No. of currently known drug interactions that involve the compound, Inhibition” value in data set [1] was 7. Also, the “No. of currently known drug interactions that involve the compound, Induction” value in data set [2] is on record as 3. Take `CNCCCN1c2ccccc2CCc2ccccc21` [desipramine]: in data set [1] (inhibition of a P450), the “No. of currently known drug interactions that involve the compound, Inhibition” value is reported as 4. Further, the “No. of currently known drug interactions that involve the compound, Induction” value in data set [2] is 1. For the molecule `CCC(C)n1ncn(-c2ccc(N3CCN(c4ccc(OCC5COC(Cn6cncn6)(c6ccc(Cl)cc6Cl)O5)cc4)CC3)cc2)c1=O` (stereo not shown) [itraconazole], the “No. of currently known drug interactions that involve the compound, Induction” value in data set [2] was 5. Consider `C[C@]12CCC(=O)C=C1CC[C@@H]1[C@@H]2[C@@H](O)C[C@@]2(C)[C@H]1CC[C@]2(O)C(=O)CO` [hydrocortisone], for which, in data set [1] (inhibition of a P450), the “No. of currently known drug interactions that involve the compound, Inhibition” value is recorded as 1. Also, the “No. of currently known drug interactions that involve the compound, Induction” value in data set [2] is recorded as 14.

With `CN(C)Cc1nnc2n1-c1ccc(Cl)cc1C(c1ccccc1)=NC2` [adinazolam], in data set [4], the “bioavailability, experimentally observed” value is “low” and the “half lives, experimentally observed” value is listed as “short”. Consider `CC(C)c1nc(CN(C)C(=O)N[C@H](C(=O)N[C@@H](Cc2ccccc2)C[C@H](O)[C@H](Cc2ccccc2)NC(=O)OCc2cncs2)C(C)C)cs1` [ritonavir], for which, in data set [2], the “No. of currently known drug interactions that involve the compound, Induction” value is listed as 3. In the case of `CN(C)CCC=C1c2ccccc2COc2ccccc21` [doxepin], the “No. of currently known drug interactions that involve the compound, Inhibition” value in data set [1] (inhibition of a P450) is reported as 4. For the same molecule, the “No. of currently known drug interactions that involve the compound, Induction” value in data set [2] was 11. Regarding `CNCCC=C1c2ccccc2CCc2ccccc21` [nortriptyline], in data set [1] (inhibition of a P450), the “No. of currently known drug interactions that involve the compound, Inhibition” value is given as 4. The “No. of currently known drug interactions that involve the compound, Induction” value in data set [2] was 11. On to `CN(C)CCC=C1c2ccccc2CCc2ccccc21` [amitriptyline], for which the “No. of currently known drug interactions that involve the compound, Inhibition” value in data set [1] (inhibition of a P450) is 5. Also, the “No. of currently known drug interactions that involve the compound, Induction” value in data set [2] was 11.

Consider `CN(C)CCCN1c2ccccc2CCc2ccccc21` [imipramine], for which the “No. of currently known drug interactions that involve the compound, Inhibition” value in data set [1] (inhibition of a P450) is listed as 5. Moreover, the “No. of currently known drug interactions that involve the compound, Induction” value in data set [2] is listed as 11. As to `CC[C@H]1OC(=O)[C@H](C)[C@@H](O[C@H]2C[C@@](C)(OC)[C@@H](O)[C@H](C)O2)[C@H](C)[C@@H](O[C@@H]2O[C@H](C)C[C@H](N(C)C)[C@H]2O)[C@](C)(OC)C[C@@H](C)C(=O)[C@H](C)[C@@H](O)[C@]1(C)O` [clarithromycin], in data set [1] (inhibition of a P450), the “No. of currently known drug interactions that involve the compound, Inhibition” value is 1. For the same molecule, in data set [2], the “No. of currently known drug interactions that involve the compound, Induction” value is 1. Turning to `Cc1ncc2n1-c1ccc(Cl)cc1C(c1ccccc1F)=NC2` [midazolam], in data set [4], the “bioavailability, experimentally observed” value is “low” and the “half lives, experimentally observed” value is recorded as “short”. Also, in data set [1], the “No. of currently known drug interactions that involve the compound, Inhibition” value is given as 15. In data set [2], the “No. of currently known drug interactions that involve the compound, Induction” value is listed as 3. `Cc1ccc(-c2nc3ccc(C)cn3c2CC(=O)N(C)C)cc1` [zolpidem]: the “No. of currently known drug interactions that involve the compound, Inhibition” value in data set [1] was 2. For the same molecule, the “No. of currently known drug interactions that involve the compound, Induction” value in data set [2] was 2.

Turning to `Cc1nnc2n1-c1ccc(Cl)cc1C(c1ccccc1)=NC2` [alprazolam], the “No. of currently known drug interactions that involve the compound, Inhibition” value in data set [1] is on record as 15. Further, the “No. of currently known drug interactions that involve the compound, Induction” value in data set [2] is listed as 3.

Turning to `CC(=O)N1CCN(c2ccc(OCC3COC(Cn4ccnc4)(c4ccc(Cl)cc4Cl)O3)cc2)CC1` (stereo not shown) [ketoconazole], the “No. of currently known drug interactions that involve the compound, Induction” value in data set [2] is reported as 2. With `CN1CCN(C2=Nc3cc(Cl)ccc3Nc3ccccc32)CC1` [clozapine], in data set [1] (inhibition of a P450), the “No. of currently known drug interactions that involve the compound, Inhibition” value is given as 2. Further, the “No. of currently known drug interactions that involve the compound, Induction” value in data set [2] is reported as 1. As to `CN(C)CCCN1c2ccccc2CCc2ccc(Cl)cc21` [clomipramine], the “No. of currently known drug interactions that involve the compound, Inhibition” value in data set [1] (inhibition of a P450) is on record as 5. Further, the “No. of currently known drug interactions that involve the compound, Induction” value in data set [2] is on record as 11.

For `C[C@H]1c2cccc(O)c2C(=O)C2=C(O)[C@]3(O)C(=O)C(C(N)=O)=C(O)[C@@H](N(C)C)[C@@H]3[C@@H](O)[C@@H]21` [doxycycline], the “No. of currently known drug interactions that involve the compound, Induction” value in data set [2] is given as 3. For `CCC1(c2ccccc2)NC(=O)N(C)C1=O` (stereo not shown) [mephenytoin], the “No. of currently known drug interactions that involve the compound, Inhibition” value in data set [1] (inhibition of a P450) is on record as 4. Besides, the “No. of currently known drug interactions that involve the compound, Induction” value in data set [2] is given as 2.

Turning to `CCC(=O)C(CC(C)N(C)C)(c1ccccc1)c1ccccc1` (stereo not shown) [methadone], in data set [2], the “No. of currently known drug interactions that involve the compound, Induction” value is 8. As for `NC(=O)N1c2ccccc2C=Cc2ccccc21` [carbamazepine], in data set [1] (inhibition of a P450), the “No. of currently known drug interactions that involve the compound, Inhibition” value was 3. Also, the “No. of currently known drug interactions that involve the compound, Induction” value in data set [2] is given as 9. As for `O=C1CN=C(c2ccccc2Cl)c2cc([N+](=O)[O-])ccc2N1` [clonazepam], the “No. of currently known drug interactions that involve the compound, Inhibition” value in data set [1] is 10. Further, in data set [2], the “No. of currently known drug interactions that involve the compound, Induction” value is listed as 3. On to `Fc1ccccc1C1=NCC(=S)N(CC(F)(F)F)c2ccc(Cl)cc21` [quazepam], for which the “No. of currently known drug interactions that involve the compound, Inhibition” value in data set [1] is on record as 7. The “No. of currently known drug interactions that involve the compound, Induction” value in data set [2] is 3. As to `Cc1c(C)c2c(c(C)c1O)CCC(C)(COc1ccc(CC3SC(=O)NC3=O)cc1)O2` (stereo not shown) [troglitazone], in data set [5], the “inhibition of CYP 3A4” value was “time and NADPH-dependent inhibition”. On to `COC(=O)C1=C(C)NC(C)=C(C(=O)OCC(C)C)C1c1ccccc1[N+](=O)[O-]` (stereo not shown) [nisoldipine], for which the “No. of currently known drug interactions that involve the compound, Inhibition” value in data set [1] (inhibition of a P450) was 3. Also, the “No. of currently known drug interactions that involve the compound, Induction” value in data set [2] is 4. As to `Cc1nnc2n1-c1ccc(Cl)cc1C(c1ccccc1Cl)=NC2` [triazolam], in data set [1], the “No. of currently known drug interactions that involve the compound, Inhibition” value is recorded as 15. Moreover, the “No. of currently known drug interactions that involve the compound, Induction” value in data set [2] was 3. Regarding `CCN(CC)CCN1C(=O)CN=C(c2ccccc2F)c2cc(Cl)ccc21` [flurazepam], the “No. of currently known drug interactions that involve the compound, Inhibition” value in data set [1] is reported as 7. Further, the “No. of currently known drug interactions that involve the compound, Induction” value in data set [2] is given as 3.
